We go through 8 compounds from patent US20190047966A1, “NOVEL COMPOUND AND PHARMACOLOGICALLY ACCEPTABLE SALT THEREOF” (MEIJI SEIKA PHARMA CO., LTD., priority 2016, published 2019).

The target in test [1] is T1, human histamine H1 receptor (Homo sapiens, UniProt P35367). Briefly: Evaluation of Human H1 Receptor Function (GeneBLAzer H1-NFAT-bla HEK 293T cells). The class given is cell-based. The conditions noted are these: histamine 30 nM, read-out: Evaluation of H1 Receptor Function (IC50 value, antagonistic effect). In short, it runs like this:
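HEK 293T cells carrying an NFAT-β-lactamase reporter were pre-incubated with compound for 30 min at 37 °C, then stimulated with 30 nM histamine for 4.5 h. FRET substrate was loaded for 2 h at room temperature. IC50 came from the blank-corrected 460/535 nm emission ratio (excitation 400 nm).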

The target in test [2] is T2, human histamine H4 receptor (Homo sapiens, UniProt Q9H3N8).
T2 construct: purchased PerkinElmer Inc; host or cells: CHO-K1
T2 sequence (Q9H3N8 whole entry): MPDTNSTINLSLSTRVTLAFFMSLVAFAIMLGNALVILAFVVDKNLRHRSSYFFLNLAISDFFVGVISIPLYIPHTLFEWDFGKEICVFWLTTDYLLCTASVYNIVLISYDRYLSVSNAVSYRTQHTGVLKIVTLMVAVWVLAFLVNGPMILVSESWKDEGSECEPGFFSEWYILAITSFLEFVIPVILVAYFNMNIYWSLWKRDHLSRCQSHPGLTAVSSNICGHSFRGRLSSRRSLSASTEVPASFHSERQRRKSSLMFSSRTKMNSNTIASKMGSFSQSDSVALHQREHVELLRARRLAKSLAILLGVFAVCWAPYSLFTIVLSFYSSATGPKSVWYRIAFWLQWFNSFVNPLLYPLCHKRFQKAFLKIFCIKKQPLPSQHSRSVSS
Briefly: Evaluation of H4 Receptor Function ([35S]GTPγS binding). Type of test: biochemical. The conditions noted are these: [35S]GTPγS binding, CHO-K1 membrane, 0.1 μM histamine; read-out: Evaluation of H4 Receptor Function (IC50 value, antagonistic effect). In short, it runs like this: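 Antagonism measured on membranes from recombinant CHO-K1 cells expressing the receptor, with 10 μM GDP and 0.1 μM histamine, reacted 20 min at 30° C in 20 mM HEPES pH 7.4, 100 mM NaCl, 10 mM MgCl2, 1 mM DTT, 1 mM EDTA. SPA beads added (60 min), then 0.3 nM [35S]GTPγS for 30 min.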

In test [3] the target is T1, human histamine H1 receptor. The test is described as follows: Evaluation of Human H1 Receptor Affinity ([3H]pyrilamine binding). On the set-up: purchased PerkinElmer Inc; host or cells: CHO-K1. The conditions noted are these: inhibition constant Ki, CHO-K1 membrane preparation. In short, it runs like this: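 Ki values are Cheng-Prusoff conversions of IC50 (Kd 1.1 nM) from radioligand displacement of 1.2 nM [3H]pyrilamine, with 1.0 μM pyrilamine defining nonspecific binding.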

Test [4] has as its target T2, human histamine H4 receptor. Briefly: Evaluation of Human H4 Receptor Affinity ([3H]histamine binding). The conditions noted are these: inhibition constant Ki, CHO-K1 membrane preparation, read-out: Evaluation of H4 Receptor Affinity. In short, it runs like this: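 Radioligand displacement: compound competes with 8.2 nM [3H]histamine at recombinant human H4 receptor in CHO-K1 membranes (Tris-HCl 50 mM pH 7.4, EDTA 1.25 mM; 25 °C, 90 min), with filter-bound radioactivity counted. IC50 was converted to Ki via Cheng-Prusoff (Kd 5.7 nM); 1.0 μM histamine set nonspecific binding.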

Counter-ions that a name gives are not always drawn.

T1 sequence (P35367 whole entry): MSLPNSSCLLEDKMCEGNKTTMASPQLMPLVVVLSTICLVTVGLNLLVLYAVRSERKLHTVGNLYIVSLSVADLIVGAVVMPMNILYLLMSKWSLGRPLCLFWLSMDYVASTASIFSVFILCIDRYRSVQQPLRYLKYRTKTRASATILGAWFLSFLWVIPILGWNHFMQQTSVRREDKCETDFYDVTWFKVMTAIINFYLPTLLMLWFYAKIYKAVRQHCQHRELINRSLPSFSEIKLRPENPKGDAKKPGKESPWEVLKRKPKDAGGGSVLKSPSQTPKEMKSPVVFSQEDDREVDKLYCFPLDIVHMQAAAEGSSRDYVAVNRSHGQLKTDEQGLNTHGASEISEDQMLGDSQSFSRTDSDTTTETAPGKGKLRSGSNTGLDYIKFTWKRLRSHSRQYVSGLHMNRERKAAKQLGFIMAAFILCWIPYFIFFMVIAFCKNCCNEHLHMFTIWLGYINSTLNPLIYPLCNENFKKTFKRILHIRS

Consider `CS(=O)(=O)NCCOCCOCCN1CCN(c2nc(N)nc3c2CCc2cc(OCc4ccc(Cl)cc4)ccc2-3)CC1` [Example 111, N-(2-(2-(2-(4-(2-amino-8-((4-chlorobenzyl)oxy)-5,6-dihydrobenzo[h]quinazolin-4-yl)piperazin-1-yl)ethoxy)ethoxy)ethyl)methanesulfonamide dihydrochoride], for which the IC50 in test [1] and in test [2] was under 200 nM each time. Moreover, the Ki in test [3] and in test [4] was under 100 nM in each case.

For the compound `CC(C)(OCCOCCN1CCN(c2nc(N)nc3c2CCc2cc(OCc4ccc(Cl)cc4)ccc2-3)CC1)C(=O)O` [Example 122, 2-(2-(2-(4-(2-amino-8-((4-chlorobenzyl)oxy)-5,6-dihydrobenzo[h]quinazolin-4-yl)piperazin-1-yl)ethoxy)ethoxy)-2-methylpropanoic acid], the IC50 (commonly the point on the concentration scale where inhibition reaches its midpoint) was under 200 nM in test [1] and 200 to 2000 nM in test [2]. Moreover, the Ki in test [3] was under 100 nM; in test [4], 100 to 500 nM.

With `Nc1nc2c(c(N3CCN(CCOCCOCC(=O)O)CC3)n1)CCc1cc(OCc3ccc(OC(F)(F)F)cc3)ccc1-2` [Example 143, 2-(2-(2-(4-(2-amino-8-((4-(trifluoromethoxy)benzyl)oxy)-5,6-dihydrobenzo[h]quinazolin-4-yl)piperazin-1-yl)ethoxy)ethoxy)acetic acid formate], the IC50 in test [1] and in test [2] was under 200 nM throughout. Besides, the Ki in test [3] and in test [4] was under 100 nM each time.

As for `Nc1nc2c(c(N3CCN(CCOCC4CC5(C4)CC(C(=O)O)C5)CC3)n1)CCc1cc(OCc3ccc(Cl)cc3)ccc1-2` (centres unmarked) [Example 152, 6-((2-(4-(2-amino-8-((4-chlorobenzyl)oxy)-5,6-dihydrobenzo[h]quinazolin-4-yl)piperazin-1-yl)ethoxy)methyl)spiro[3.3]heptane-2-carboxylic acid hydrochloride], the IC50 is under 200 nM in test [1] and 200 to 2000 nM in test [2]. Moreover, the Ki in test [3] and in test [4] was under 100 nM throughout.

For `Nc1nc2c(c(N3CCN(CCOCCSCC(=O)O)CC3)n1)CCc1cc(OCc3ccc(OC(F)(F)F)cc3)ccc1-2` [Example 178, 2-((2-(2-(4-(2-amino-8-((4-(trifluoromethoxy)benzyl)oxy)-5,6-dihydrobenzo[h]quinazolin-4-yl)piperazin-1-yl)ethoxy)ethyl)thio)acetic acid], the IC50 in test [1] and in test [2] was under 200 nM in each case. In addition, the Ki in test [3] and in test [4] was under 100 nM in each case.

`[2H]C([2H])(C(=O)O)[C@H]1C[C@@H](OCCN2CCN(c3nc(N)nc4c3CCc3cc(OCc5ccc(OC(F)(F)F)cc5)ccc3-4)CC2)C1` [Example 184, cis-2-(3-(2-(4-(2-amino-8-((4-(trifluoromethoxy)benzyl)oxy)-5,6-dihydrobenzo[h]quinazolin-4-yl)piperazin-1-yl)ethoxy)cyclobutyl)acetic-c-2,2-d2 acid]: the IC50 in test [1] and in test [2] was under 200 nM each time. The Ki in test [3] and in test [4] was under 100 nM in each case.

As to `CN1CCN(c2nc(N)nc3c2CCc2cc(OCc4ccc(F)cc4)ccc2-3)CC1` [Example 196, 8-((4-fluorobenzyl)oxy)-4-(4-methylpiperazin-1-yl)-5,6-dihydrobenzo[h]quinazolin-2-amine], the IC50 in test [1] and in test [2] was under 200 nM in each case. Moreover, the Ki in test [3] and in test [4] was under 100 nM each time.

Regarding `CN1CCN(c2nc(N)nc3c2Cc2ccc(OCc4ccccc4)cc2-3)CC1` [Example 201, 8-(benzyloxy)-4-(4-methylpiperazin-1-yl)-5H-indeno[1,2-d]pyrimidin-2-amine], the IC50 in test [1] and in test [2] was under 200 nM in each case. Besides, the Ki in test [3] and in test [4] was under 100 nM throughout.
